From PubChem BioAssay (NCI)
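The concentration for 50% growth inhibition is given as GI50. TGI: total growth inhibition.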

Assays:
Test in all cases: NCI-60 cell line screen, 384-well format
786-0 renal = system: 786-0 renal
A498 renal = system: A498 renal
A549 NSCLC = system: A549 NSCLC
ACHN renal = system: ACHN renal
BT-549 breast = system: BT-549 breast
CAKI-1 renal = system: CAKI-1 renal
CCRF-CEM leukemia = system: CCRF-CEM leukemia
COLO 205 colon = system: COLO 205 colon
DU-145 prostate = system: DU-145 prostate
HCC-2998 colon = system: HCC-2998 colon
HCT-116 colon = system: HCT-116 colon
HCT-15 colon = system: HCT-15 colon
HL-60(TB) leukemia = system: HL-60(TB) leukemia
HOP-62 NSCLC = system: HOP-62 NSCLC
HOP-92 NSCLC = system: HOP-92 NSCLC
HT29 colon = system: HT29 colon
IGROV1 ovarian = system: IGROV1 ovarian
K-562 leukemia = system: K-562 leukemia
KM12 colon = system: KM12 colon
LOX IMVI melanoma = system: LOX IMVI melanoma
M14 melanoma = system: M14 melanoma
MALME-3M melanoma = system: MALME-3M melanoma
MCF7 breast = system: MCF7 breast
MDA-MB-231 breast = system: MDA-MB-231 breast
MDA-MB-435 melanoma = system: MDA-MB-435 melanoma
MDA-MB-468 breast = system: MDA-MB-468 breast
MOLT-4 leukemia = system: MOLT-4 leukemia
NCI-H226 lung = system: NCI-H226 lung
NCI-H23 lung = system: NCI-H23 lung
NCI-H322M lung = system: NCI-H322M lung
NCI-H460 NSCLC = system: NCI-H460 NSCLC
NCI-H522 lung = system: NCI-H522 lung
NCI/ADR-RES ovarian = system: NCI/ADR-RES ovarian
OVCAR-3 ovarian = system: OVCAR-3 ovarian
OVCAR-4 ovarian = system: OVCAR-4 ovarian
OVCAR-5 ovarian = system: OVCAR-5 ovarian
OVCAR-8 ovarian = system: OVCAR-8 ovarian
PC-3 prostate = system: PC-3 prostate
RPMI-8226 leukemia = system: RPMI-8226 leukemia
RXF 393 renal = system: RXF 393 renal
SF-268 CNS = system: SF-268 CNS
SF-295 CNS = system: SF-295 CNS
SF-539 CNS = system: SF-539 CNS
SK-MEL-2 melanoma = system: SK-MEL-2 melanoma
SK-MEL-28 melanoma = system: SK-MEL-28 melanoma
SK-MEL-5 melanoma = system: SK-MEL-5 melanoma
SK-OV-3 ovarian = system: SK-OV-3 ovarian
SN12C renal = system: SN12C renal
SNB-19 CNS = system: SNB-19 CNS
SR leukemia = system: SR leukemia
SW-620 colon = system: SW-620 colon
T-47D breast = system: T-47D breast
TK-10 renal = system: TK-10 renal
U251 glioblastoma = system: U251 glioblastoma
UACC-257 melanoma = system: UACC-257 melanoma
UACC-62 melanoma = system: UACC-62 melanoma

Cc1c(CN2CCC(Nc3ncnc4sc(CC(F)(F)F)cc34)CC2)ccc2c1cc(C#N)n2Cc1cn[nH]c1 showed a GI50 ([…]-0 renal) of 1160 nM, a TGI (786-0 renal) of 2390 nM and a GI50 (A498 renal) of 1150 nM. It also gave a TGI (A498 renal) of 2370 nM, a GI50 (A549 NSCLC) of 1350 nM and a TGI (A549 NSCLC) of 2670 nM. The GI50 (ACHN renal) was 1390 nM, the TGI (ACHN renal) was 2690 nM and the GI50 (BT-549 breast) was 901 nM. The TGI (BT-549 breast) was 2120 nM, the GI50 (CAKI-1 renal) was 1420 nM and the TGI (CAKI-1 renal) was 2730 nM. It also gave a GI50 (CCRF-CEM leukemia) of 668 nM, a TGI (CCRF-CEM leukemia) of 1960 nM and a GI50 (COLO 205 colon) of 1420 nM. The TGI (COLO 205 colon) was 2740 nM, the GI50 (DU-145 prostate) was 1700 nM and the TGI (DU-145 prostate) was 3090 nM. The GI50 (HCC-2998 colon) was 391 nM, the TGI (HCC-2998 colon) was 1350 nM and the GI50 (HCT-116 colon) was 417 nM. For the same compound, the TGI (HCT-116 colon) was 1610 nM, the GI50 (HCT-15 colon) was 1230 nM and the TGI (HCT-15 colon) was 2490 nM. For the same compound, the GI50 (HL-60(TB) leukemia) was 627 nM, the TGI (HL-60(TB) leukemia) was 1680 nM and the GI50 (HOP-62 NSCLC) was 1160 nM. It also gave a TGI (HOP-62 NSCLC) of 2390 nM, a GI50 (HOP-92 NSCLC) of 1330 nM and a TGI (HOP-92 NSCLC) of 2610 nM. The GI50 (HT29 colon) was 318 nM, the TGI (HT29 colon) was 1270 nM and the GI50 (IGROV1 ovarian) was 1350 nM. For the same compound, the TGI (IGROV1 ovarian) was 3400 nM, the GI50 (K-562 leukemia) was 295 nM and the TGI (K-562 leukemia) was 1110 nM. The GI50 (KM12 colon) was 1280 nM, the TGI (KM12 colon) was 2560 nM and the GI50 (LOX IMVI melanoma) was 2060 nM. For the same compound, the TGI (LOX IMVI melanoma) was 3490 nM, the GI50 (M14 melanoma) was 1620 nM and the TGI (M14 melanoma) was 2980 nM. It also gave a GI50 (MALME-3M melanoma) of 1360 nM, a TGI (MALME-3M melanoma) of 2650 nM and a GI50 (MCF7 breast) of 1020 nM. For the same compound, the TGI (MCF7 breast) was 2190 nM, the GI50 (MDA-MB-231 breast) was 1360 nM and the TGI (MDA-MB-231 breast) was 2650 nM. The GI50 (MDA-MB-435 melanoma) was 1860 nM, the TGI (MDA-MB-435 melanoma) was 3270 nM and the GI50 (MDA-MB-468 breast) was 327 nM. For the same compound, the TGI (MDA-MB-468 breast) was 1130 nM, the GI50 (MOLT-4 leukemia) was 486 nM and the TGI (MOLT-4 leukemia) was 1690 nM. For the same compound, the GI50 (NCI-H226 lung) was 1300 nM, the TGI (NCI-H226 lung) was 2610 nM and the GI50 (NCI-H23 lung) was 275 nM. It also gave a TGI (NCI-H23 lung) of 1420 nM, a GI50 (NCI-H322M lung) of 954 nM and a TGI (NCI-H322M lung) of 2150 nM. The GI50 (NCI-H460 NSCLC) was 409 nM, the TGI (NCI-H460 NSCLC) was 1630 nM and the GI50 (NCI-H522 lung) was 1390 nM. The TGI (NCI-H522 lung) was 2680 nM, the GI50 (NCI/ADR-RES ovarian) was 1580 nM and the TGI (NCI/ADR-RES ovarian) was 2940 nM. The GI50 (OVCAR-3 ovarian) was 1230 nM, the TGI (OVCAR-3 ovarian) was 2480 nM and the GI50 (OVCAR-4 ovarian) was 930 nM. The TGI (OVCAR-4 ovarian) was 2140 nM, the GI50 (OVCAR-5 ovarian) was 1730 nM and the TGI (OVCAR-5 ovarian) was 3120 nM. It also gave a GI50 (OVCAR-8 ovarian) of 1500 nM, a TGI (OVCAR-8 ovarian) of 2840 nM and a GI50 (PC-3 prostate) of 1300 nM. For the same compound, the TGI (PC-3 prostate) was 2580 nM, the GI50 (RPMI-8226 leukemia) was 107 nM and the TGI (RPMI-8226 leukemia) was 770 nM. For the same compound, the GI50 (RXF 393 renal) was 219 nM, the TGI (RXF 393 renal) was 709 nM and the GI50 (SF-268 CNS) was 1310 nM. It also gave a TGI (SF-268 CNS) of 2590 nM, a GI50 (SF-295 CNS) of 1420 nM and a TGI (SF-295 CNS) of 2730 nM. For the same compound, the GI50 (SF-539 CNS) was 1330 nM, the TGI (SF-539 CNS) was 2620 nM and the GI50 (SK-MEL-2 melanoma) was 1330 nM. For the same compound, the TGI (SK-MEL-2 melanoma) was 2600 nM, the GI50 (SK-MEL-28 melanoma) was 1850 nM and the TGI (SK-MEL-28 melanoma) was 3260 nM. It also gave a GI50 (SK-MEL-5 melanoma) of 402 nM, a TGI (SK-MEL-5 melanoma) of 1540 nM and a GI50 (SK-OV-3 ovarian) of 1330 nM. It also gave a TGI (SK-OV-3 ovarian) of 2610 nM, a GI50 (SN12C renal) of 1300 nM and a TGI (SN12C renal) of 2580 nM. The GI50 (SNB-19 CNS) was 1670 nM, the TGI (SNB-19 CNS) was 3040 nM and the GI50 (SR leukemia) was 137 nM. For the same compound, the TGI (SR leukemia) was 279 nM, the GI50 (SW-620 colon) was 1310 nM and the TGI (SW-620 colon) was 2600 nM. It also gave a GI50 (T-47D breast) of 247 nM, a TGI (T-47D breast) of 1440 nM and a GI50 (TK-10 renal) of 1330 nM. The TGI (TK-10 renal) was 2620 nM, the GI50 (U251 glioblastoma) was 730 nM and the TGI (U251 glioblastoma) was 2000 nM. It also gave a GI50 (UACC-257 melanoma) of 772 nM, a TGI (UACC-257 melanoma) of 2060 nM and a GI50 (UACC-62 melanoma) of 1650 nM. For the same compound, the TGI (UACC-62 melanoma) was 3020 nM.
